Test results published in US20220347305A1, “CONTROLLED RELEASE DRUG DIMERS” (Ripple Therapeutics Corporation, priority 2019, published 2022).

Legend:
[1] = Pellet formation by heat molding (heat processing of compounds); format: physicochemical; conditions: processed ~10-30° C. above Tg or Tm, pressed into cylindrical mold ~1 mm x 1 mm, light microscopy
Protocol: Crystalline powder was melted at 185° C. and pellets were formed from 1 mm×1 mm cylindrical molds. The starting powder and heat-processed pellets were tested by differential scanning calorimetry (DSC; FIG. 1C) and X-ray powder diffraction (XRPD; FIG. 1D) to confirm heat-processing converted Compound 1 from the crystalline state to the glassy state.
Compounds that were collected as stable powders and/or gums were investigated for pellet formation by heat molding. Compounds were processed at a temperature ˜10-30° C. above their corresponding thermal transitions (glass transition temperature (Tg) for gums or amorphous powders or melting point (Tm) for crystalline powders) and pressed into a cylindrical mold of ˜1 mm in height×1 mm in diameter. Light microscopy was used to capture images of the heat-formed pellets. Temperatures used to achieve a melt for heat molding were in a range from 70° C. to 220° C.

[2] = Drug release from heat-molded pellets in phosphate buffered saline; format: physicochemical; conditions: 37° C.; for Observation of pellet after 1-day incubation in release buffer: 4 mL PBS, shaker 115 rpm
Protocol: Drug release from heat-molded pellets of the compounds were assessed in phosphate buffered saline (PBS). Heat-molded pellets were placed in 20 ml glass vials and 2 ml of release buffer was added. Samples were incubated at 37° C. with constant agitation at 115 rpm. Release buffer was sampled and fully replaced with 2 ml of fresh buffer on days 1, 3, 7, 10, and 14. Samples were analyzed by high performance liquid chromatography (HPLC) to quantify drug products. Cumulative release was calculated as a percentage of total mass of starting pellets and was plotted over time.
Heat molded pellets of Compound 3, Compound 5, and Compound 8 were then placed in 20 mL glass vials and 4 mL of release buffer (phosphate buffered saline, PBS) was added. Samples were incubated at 37° C. on a shaker rotating at 115 rpm. […] Drug release from Compound 8 was assessed by HPLC from PBS release buffer weekly for 8 weeks with full buffer change at each time point.

[3] = Drug release and erosion of Compound 1 heat-molded pellets in release buffer (PBS, 1% FBS in PBS, 100% FBS); format: physicochemical; conditions: 37° C., 115 rpm
Protocol: Heat-molded pellets from Compound 1 (˜1 mm×1 mm) were then placed in 20 mL glass vials and 2 mL of release buffer (either 100% phosphate buffered saline (PBS), 1% fetal bovine serum (FBS) in PBS, or 100% FBS) was added. Samples were incubated at 37° C. on a shaker rotating at 115 rpm. After 1 day, 3 days, 7 days, and subsequently in alternating 3 and 4 day intervals (i.e., 1, 3, 7, 10, 14 days etc.), release buffer was sampled directly (PBS) or syringe filtered, proteins were precipitated with acetonitrile, and drug release products were extracted. The samples were analyzed by high performance liquid chromatography (HPLC) to quantify drug products. Cumulative drug release was calculated and plotted as a percentage of the total drug in each pellet released over time (FIG. 1E).

Row | SMILES | melting point [°C] | Pellet formation by heat molding and handling properties of the pellet [1] | other results
1 | N[C@@H](Cc1ccc(O)c(O)c1)C(=O)OCC1CCC(COC(=O)[C@@H](N)Cc2ccc(O)c(O)c2)CC1 (stereo partly drawn) [Compound 6, cyclohexane-1,4-diylbis(methylene) (2S,2′S)-bis(2-amino-3-(3,4-dihydroxyphenyl)propanoate)] | 161 to 166 |  | 
2 | O=C(CCCCC(=O)Oc1ccc2c3c1O[C@H]1C(=O)CC[C@@]4(O)[C@@H](C2)N(CC2CC2)CC[C@]314)Oc1ccc2c3c1O[C@H]1C(=O)CC[C@@]4(O)[C@@H](C2)N(CC2CC2)CC[C@]314 [Compound 10, bis((4R,4aS,7aR,12bS)-3-(cyclopropylmethyl)-4a-hydroxy-7-oxo-2,3,4,4a,5,6,7,7a-octahydro-1H-4,12-methanobenzofuro[3,2-e]isoquinolin-9-yl) adipate] |  | didn't form a viscous liquid that could be pressed into a pellet | 
3 | C=CCN1CC[C@]23c4c5ccc(OC(=O)CCCCC(=O)Oc6ccc7c8c6O[C@H]6C(=O)CC[C@@]9(O)[C@@H](C7)N(CC=C)CC[C@]869)c4O[C@H]2C(=O)CC[C@@]3(O)[C@H]1C5 [Compound 9, bis((4R,4aS,7aR,12bS)-3-allyl-4a-hydroxy-7-oxo-2,3,4,4a,5,6,7,7a-octahydro-1H-4,12-methanobenzofuro[3,2-e]isoquinolin-9-yl) adipate] | 120 |  | 
4 | COc1ccc2c(c1)c(CC(=O)OCCOCCOCCOC(=O)Cc1c(C)n(C(=O)c3ccc(Cl)cc3)c3ccc(OC)cc13)c(C)n2C(=O)c1ccc(Cl)cc1 [Compound 8, (ethane-1,2-diylbis(oxy))bis(ethane-2,1-diyl) bis(2-(1-(4-chlorobenzoyl)-5-methoxy-2-methyl-1H-indol-3-yl)acetate)] | 102 | formed opaque yellow-tinted pellets that could be handled | Drug release from pellet assessed by HPLC ([2]; PBS release buffer, weekly for 8 weeks with full buffer change): Minimal drug release
5 | C[C@@H]1C[C@H]2[C@@H]3CCC4=CC(=O)C=C[C@]4(C)[C@@]3(F)[C@@H](O)C[C@]2(C)[C@@]1(O)C(=O)COC(=O)OCCOCCOCCOC(=O)OCC(=O)[C@@]1(O)[C@H](C)C[C@H]2[C@@H]3CCC4=CC(=O)C=C[C@]4(C)[C@@]3(F)[C@@H](O)C[C@@]21C [Compound 1, Dexamethasone-Triethylene Glycol-Dexamethasone] |  | formed into pellets in the glassy state | Erosion of pellets over time (representative images) [3]: surface erosion over time
6 | O=C(Oc1ccc2c3c1O[C@H]1C(=O)CC[C@@]4(O)[C@@H](C2)N(CC2CC2)CC[C@]314)c1ccc(C(=O)Oc2ccc3c4c2O[C@H]2C(=O)CC[C@@]5(O)[C@@H](C3)N(CC3CC3)CC[C@]425)cc1 [Compound 16, bis((4R,4aS,7aR,12bS)-3-(cyclopropylmethyl)-4a-hydroxy-7-oxo-2,3,4,4a,5,6,7,7a-octahydro-1H-4,12-methanobenzofuro[3,2-e]isoquinolin-9-yl) terephthalate] |  |  | Pellet formation by heat molding and handling properties of the pellet ([1]; listed as Naltrexone-1,4-terephthalate-Naltrexone): did not form a heat processed pellet
7 | O=C(OCCCCCCCOC(=O)N1CCCN(S(=O)(=O)c2cccc3cnccc23)CC1)N1CCCN(S(=O)(=O)c2cccc3cnccc23)CC1 [Compound 3, heptane-1,7-diyl bis(4-(isoquinolin-5-ylsulfonyl)-1,4-diazepane-1-carboxylate)] |  | successfully formed glassy, mostly transparent pellets | Observation of pellet after 1-day incubation in release buffer [2]: pellet shape changed to a clear gel
8 | O=C(CCCCCCCCC(=O)N1CCCN(S(=O)(=O)c2cccc3cnccc23)CC1)N1CCCN(S(=O)(=O)c2cccc3cnccc23)CC1 [Compound 5, 1,10-bis(4-(isoquinolin-5-ylsulfonyl)-1,4-diazepan-1-yl)decane-1,10-dione] |  | successfully formed glassy, mostly transparent pellets | Observation of pellet after 1-day incubation in release buffer [2]: fragmented entirely to opaque particulates
